{
  "source": "PubChem BioAssay (NCI)",
  "assay_in_all_cases": "NCI-60 cell line screen, 48 h",
  "key": {"A498 renal": {"system": "A498 renal"}, "M14 melanoma": {"system": "M14 melanoma"}, "MCF7 breast": {"system": "MCF7 breast"}, "NCI-H522 lung": {"system": "NCI-H522 lung"}, "OVCAR-4 ovarian": {"system": "OVCAR-4 ovarian"}, "SF-295 CNS": {"system": "SF-295 CNS"}, "TK-10 renal": {"system": "TK-10 renal"}, "UACC-257 melanoma": {"system": "UACC-257 melanoma"}, "UACC-62 melanoma": {"system": "UACC-62 melanoma"}, "MALME-3M melanoma": {"system": "MALME-3M melanoma"}},
  "note": "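In this assay, cells in 96-well plates receive the compound at five concentrations for 48 hours. Endpoints are linearly interpolated between the surrounding concentrations. TGI denotes the concentration required for complete inhibition of growth.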",
  "data": [
    {"smiles": "O=S(=O)(O)ON=C1c2ccccc2-c2ccccc21", "values": [
      {"measurement": "TGI", "setting": "A498 renal", "result": "> 100", "unit": "µM"},
      {"measurement": "TGI", "setting": "M14 melanoma", "result": "> 100", "unit": "µM"},
      {"measurement": "TGI", "setting": "MCF7 breast", "result": "> 100", "unit": "µM"},
      {"measurement": "TGI", "setting": "NCI-H522 lung", "result": "> 100", "unit": "µM"},
      {"measurement": "TGI", "setting": "OVCAR-4 ovarian", "result": "> 100", "unit": "µM"},
      {"measurement": "TGI", "setting": "SF-295 CNS", "result": "> 100", "unit": "µM"},
      {"measurement": "TGI", "setting": "TK-10 renal", "result": "> 100", "unit": "µM"},
      {"measurement": "TGI", "setting": "UACC-257 melanoma", "result": "> 100", "unit": "µM"},
      {"measurement": "TGI", "setting": "UACC-62 melanoma", "result": "> 100", "unit": "µM"}
    ]},
    {"smiles": "O=c1oc2cc(O)ccc2c(O)c1C(c1cccnc1)c1c(O)c2ccc(O)cc2oc1=O", "values": [
      {"measurement": "TGI", "setting": "A498 renal", "result": "> 100", "unit": "µM"},
      {"measurement": "TGI", "setting": "M14 melanoma", "result": "> 100", "unit": "µM"},
      {"measurement": "TGI", "setting": "MCF7 breast", "result": "> 100", "unit": "µM"},
      {"measurement": "TGI", "setting": "NCI-H522 lung", "result": "> 100", "unit": "µM"},
      {"measurement": "TGI", "setting": "SF-295 CNS", "result": "> 100", "unit": "µM"},
      {"measurement": "TGI", "setting": "TK-10 renal", "result": "> 100", "unit": "µM"},
      {"measurement": "TGI", "setting": "UACC-257 melanoma", "result": "> 100", "unit": "µM"},
      {"measurement": "TGI", "setting": "UACC-62 melanoma", "result": "> 100", "unit": "µM"}
    ]},
    {"smiles": "CCOC(=O)C1=C(C)N(c2ccc(C)cc2)C2=C(C(=O)N(c3ccccc3)C2c2ccccc2)C1c1ccccc1", "note": "(stereo unspecified)", "values": [
      {"measurement": "TGI", "setting": "A498 renal", "result": "> 25", "unit": "µM"},
      {"measurement": "TGI", "setting": "M14 melanoma", "result": "> 25", "unit": "µM"},
      {"measurement": "TGI", "setting": "MALME-3M melanoma", "result": "> 25", "unit": "µM"},
      {"measurement": "TGI", "setting": "OVCAR-4 ovarian", "result": "> 25", "unit": "µM"},
      {"measurement": "TGI", "setting": "SF-295 CNS", "result": "> 25", "unit": "µM"},
      {"measurement": "TGI", "setting": "TK-10 renal", "result": "> 25", "unit": "µM"},
      {"measurement": "TGI", "setting": "UACC-257 melanoma", "result": "> 25", "unit": "µM"},
      {"measurement": "TGI", "setting": "UACC-62 melanoma", "result": "> 25", "unit": "µM"}
    ]},
    {"smiles": "CNC(=O)N(C)COC", "values": [
      {"measurement": "TGI", "setting": "A498 renal", "result": "> 100", "unit": "µM"},
      {"measurement": "TGI", "setting": "M14 melanoma", "result": "> 100", "unit": "µM"},
      {"measurement": "TGI", "setting": "MALME-3M melanoma", "result": "> 100", "unit": "µM"},
      {"measurement": "TGI", "setting": "NCI-H522 lung", "result": "> 100", "unit": "µM"},
      {"measurement": "TGI", "setting": "OVCAR-4 ovarian", "result": "> 100", "unit": "µM"},
      {"measurement": "TGI", "setting": "SF-295 CNS", "result": "> 100", "unit": "µM"},
      {"measurement": "TGI", "setting": "UACC-257 melanoma", "result": "> 100", "unit": "µM"},
      {"measurement": "TGI", "setting": "UACC-62 melanoma", "result": "> 100", "unit": "µM"}
    ]},
    {"smiles": "N=c1c2c(-c3ccccc3)c[nH]c2ncn1N", "values": [
      {"measurement": "TGI", "setting": "A498 renal", "result": "> 100", "unit": "µM"},
      {"measurement": "TGI", "setting": "M14 melanoma", "result": "> 100", "unit": "µM"},
      {"measurement": "TGI", "setting": "MCF7 breast", "result": "> 100", "unit": "µM"},
      {"measurement": "TGI", "setting": "NCI-H522 lung", "result": "> 100", "unit": "µM"},
      {"measurement": "TGI", "setting": "OVCAR-4 ovarian", "result": "> 100", "unit": "µM"},
      {"measurement": "TGI", "setting": "SF-295 CNS", "result": "> 100", "unit": "µM"},
      {"measurement": "TGI", "setting": "TK-10 renal", "result": "> 100", "unit": "µM"},
      {"measurement": "TGI", "setting": "UACC-257 melanoma", "result": "> 100", "unit": "µM"},
      {"measurement": "TGI", "setting": "UACC-62 melanoma", "result": "> 100", "unit": "µM"}
    ]},
    {"smiles": "CCCCCCCCCCCCCC[S+](C)C", "values": [
      {"measurement": "TGI", "setting": "M14 melanoma", "result": 3.57, "unit": "µM"},
      {"measurement": "TGI", "setting": "MCF7 breast", "result": 4.67, "unit": "µM"},
      {"measurement": "TGI", "setting": "NCI-H522 lung", "result": 4.33, "unit": "µM"},
      {"measurement": "TGI", "setting": "OVCAR-4 ovarian", "result": 7.31, "unit": "µM"},
      {"measurement": "TGI", "setting": "SF-295 CNS", "result": "> 10", "unit": "µM"},
      {"measurement": "TGI", "setting": "TK-10 renal", "result": 3.75, "unit": "µM"},
      {"measurement": "TGI", "setting": "UACC-257 melanoma", "result": 6.99, "unit": "µM"},
      {"measurement": "TGI", "setting": "UACC-62 melanoma", "result": 6.78, "unit": "µM"}
    ]},
    {"smiles": "CN1CCC(CN2c3ccccc3Sc3ccccc32)CC1", "values": [
      {"measurement": "TGI", "setting": "A498 renal", "result": 29, "unit": "µM"},
      {"measurement": "TGI", "setting": "M14 melanoma", "result": 26, "unit": "µM"},
      {"measurement": "TGI", "setting": "NCI-H522 lung", "result": 28.3, "unit": "µM"},
      {"measurement": "TGI", "setting": "OVCAR-4 ovarian", "result": 30.5, "unit": "µM"},
      {"measurement": "TGI", "setting": "SF-295 CNS", "result": 29.3, "unit": "µM"},
      {"measurement": "TGI", "setting": "TK-10 renal", "result": 29.2, "unit": "µM"},
      {"measurement": "TGI", "setting": "UACC-257 melanoma", "result": 27.8, "unit": "µM"},
      {"measurement": "TGI", "setting": "UACC-62 melanoma", "result": 28.2, "unit": "µM"}
    ]},
    {"smiles": "CC(=O)OC(CCC1(C)OC1COc1ccc(CCNC(=O)c2ccccc2)cc1)C(C)(C)OC(C)=O", "note": "(stereo unspecified)", "values": [
      {"measurement": "TGI", "setting": "M14 melanoma", "result": 30.1, "unit": "µM"},
      {"measurement": "TGI", "setting": "MALME-3M melanoma", "result": 80.1, "unit": "µM"},
      {"measurement": "TGI", "setting": "NCI-H522 lung", "result": "> 100", "unit": "µM"},
      {"measurement": "TGI", "setting": "OVCAR-4 ovarian", "result": "> 100", "unit": "µM"},
      {"measurement": "TGI", "setting": "SF-295 CNS", "result": "> 100", "unit": "µM"},
      {"measurement": "TGI", "setting": "TK-10 renal", "result": "> 100", "unit": "µM"},
      {"measurement": "TGI", "setting": "UACC-257 melanoma", "result": 25.8, "unit": "µM"},
      {"measurement": "TGI", "setting": "UACC-62 melanoma", "result": 31.4, "unit": "µM"}
    ]},
    {"smiles": "O=C(/C=C/c1ccc(/C=C/C(=O)c2ccc(O)cc2)cc1)c1ccc(O)cc1", "values": [
      {"measurement": "TGI", "setting": "A498 renal", "result": "> 100", "unit": "µM"},
      {"measurement": "TGI", "setting": "M14 melanoma", "result": "> 100", "unit": "µM"},
      {"measurement": "TGI", "setting": "MCF7 breast", "result": "> 100", "unit": "µM"},
      {"measurement": "TGI", "setting": "SF-295 CNS", "result": "> 100", "unit": "µM"},
      {"measurement": "TGI", "setting": "TK-10 renal", "result": "> 100", "unit": "µM"},
      {"measurement": "TGI", "setting": "UACC-257 melanoma", "result": "> 100", "unit": "µM"},
      {"measurement": "TGI", "setting": "UACC-62 melanoma", "result": "> 100", "unit": "µM"}
    ]},
    {"smiles": "O=c1[nH]c(=O)n(C2CC(O)C(CO)O2)cc1C1=NC1", "note": "(stereo unspecified)", "values": [
      {"measurement": "TGI", "setting": "A498 renal", "result": "> 100", "unit": "µM"},
      {"measurement": "TGI", "setting": "M14 melanoma", "result": "> 100", "unit": "µM"},
      {"measurement": "TGI", "setting": "MCF7 breast", "result": "> 100", "unit": "µM"},
      {"measurement": "TGI", "setting": "OVCAR-4 ovarian", "result": "> 100", "unit": "µM"},
      {"measurement": "TGI", "setting": "SF-295 CNS", "result": "> 100", "unit": "µM"},
      {"measurement": "TGI", "setting": "TK-10 renal", "result": "> 100", "unit": "µM"},
      {"measurement": "TGI", "setting": "UACC-257 melanoma", "result": "> 100", "unit": "µM"},
      {"measurement": "TGI", "setting": "UACC-62 melanoma", "result": "> 100", "unit": "µM"}
    ]}
  ]
}
